Assay results published in ChEMBL document CHEMBL1781973, “Novel and Potent 5-Piperazinyl Methyl-N 1-aryl Sulfonyl Indole Derivatives as 5-HT6 Receptor Ligands” (ACS Med Chem Lett, 2010).
Activity calls are given as the source filed them. The calls are words filed in the database; no cut-off is given here.

What was measured:
CYP2C19 [1] = biological target: T1, CYP2C19 (Homo sapiens, UniProt P33261); assay: Inhibition of human CYP2C19 at 3 uM; format: ADME
CYP1A2 [2] = biological target: T2, CYP1A2 (Homo sapiens, UniProt P05177); assay: Inhibition of human CYP1A2 at 10 uM; format: ADME
T2 sequence (P05177 whole entry): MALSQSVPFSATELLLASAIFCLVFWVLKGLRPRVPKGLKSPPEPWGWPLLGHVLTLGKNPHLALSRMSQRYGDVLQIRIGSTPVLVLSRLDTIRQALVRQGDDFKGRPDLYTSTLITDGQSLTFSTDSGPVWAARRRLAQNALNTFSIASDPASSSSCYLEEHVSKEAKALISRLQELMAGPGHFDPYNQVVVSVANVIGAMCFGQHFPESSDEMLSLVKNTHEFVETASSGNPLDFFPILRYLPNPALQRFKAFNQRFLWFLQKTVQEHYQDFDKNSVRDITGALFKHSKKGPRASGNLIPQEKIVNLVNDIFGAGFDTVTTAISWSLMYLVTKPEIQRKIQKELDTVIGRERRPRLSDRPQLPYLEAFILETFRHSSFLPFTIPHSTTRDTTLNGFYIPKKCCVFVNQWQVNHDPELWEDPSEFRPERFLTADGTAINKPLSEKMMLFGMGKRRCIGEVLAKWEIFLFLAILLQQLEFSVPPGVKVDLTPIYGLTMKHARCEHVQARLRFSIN

CYP3A4 [3] = biological target: T3, CYP3A4 (Homo sapiens, UniProt P08684); assay: Inhibition of human CYP3A4 at 10 uM; format: ADME
T3 sequence (P08684 whole entry): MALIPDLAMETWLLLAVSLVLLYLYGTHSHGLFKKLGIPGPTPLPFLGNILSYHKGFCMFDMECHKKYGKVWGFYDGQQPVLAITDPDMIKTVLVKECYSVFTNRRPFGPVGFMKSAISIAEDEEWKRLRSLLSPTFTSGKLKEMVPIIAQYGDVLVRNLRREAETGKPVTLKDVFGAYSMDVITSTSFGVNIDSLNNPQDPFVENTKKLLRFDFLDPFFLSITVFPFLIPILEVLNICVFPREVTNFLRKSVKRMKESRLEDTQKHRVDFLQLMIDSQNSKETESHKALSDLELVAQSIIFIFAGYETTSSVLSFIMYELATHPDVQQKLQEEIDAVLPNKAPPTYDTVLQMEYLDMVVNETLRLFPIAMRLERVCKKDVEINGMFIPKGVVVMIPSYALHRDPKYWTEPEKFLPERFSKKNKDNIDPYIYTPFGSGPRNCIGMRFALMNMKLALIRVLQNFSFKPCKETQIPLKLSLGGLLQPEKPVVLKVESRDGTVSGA

CYP2C9*1 [4] = assay: Inhibition of human CYP2C9*1 at 3 uM; format: ADME
CYP2C9*1 [5] = assay: Inhibition of human CYP2C9*1 at 10 uM; format: ADME
CYP2A6 [6] = biological target: T4, CYP2A6 (Homo sapiens, UniProt P11509); assay: Inhibition of human CYP2A6 at 10 uM; format: ADME
T4 sequence (P11509 whole entry): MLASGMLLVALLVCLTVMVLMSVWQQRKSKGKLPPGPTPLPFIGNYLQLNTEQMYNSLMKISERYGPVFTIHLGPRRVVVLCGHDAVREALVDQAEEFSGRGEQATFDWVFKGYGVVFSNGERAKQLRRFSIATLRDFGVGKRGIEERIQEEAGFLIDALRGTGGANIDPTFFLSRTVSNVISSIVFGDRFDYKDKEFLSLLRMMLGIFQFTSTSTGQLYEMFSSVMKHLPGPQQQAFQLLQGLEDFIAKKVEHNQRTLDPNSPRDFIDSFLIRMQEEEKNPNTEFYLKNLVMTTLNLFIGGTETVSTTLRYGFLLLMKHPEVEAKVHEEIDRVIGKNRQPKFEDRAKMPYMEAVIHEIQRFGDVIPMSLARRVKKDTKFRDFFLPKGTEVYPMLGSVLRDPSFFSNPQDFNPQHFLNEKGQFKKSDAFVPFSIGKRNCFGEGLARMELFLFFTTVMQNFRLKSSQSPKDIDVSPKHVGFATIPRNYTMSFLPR

CYP1A2 [7] = biological target: T2, CYP1A2; assay: Inhibition of human CYP1A2 at 3 uM; format: ADME
CYP2D6 [8] = biological target: T5, CYP2D6 (Homo sapiens, UniProt P10635); assay: Inhibition of human CYP2D6 at 3 uM; format: ADME
T5 sequence (P10635 whole entry): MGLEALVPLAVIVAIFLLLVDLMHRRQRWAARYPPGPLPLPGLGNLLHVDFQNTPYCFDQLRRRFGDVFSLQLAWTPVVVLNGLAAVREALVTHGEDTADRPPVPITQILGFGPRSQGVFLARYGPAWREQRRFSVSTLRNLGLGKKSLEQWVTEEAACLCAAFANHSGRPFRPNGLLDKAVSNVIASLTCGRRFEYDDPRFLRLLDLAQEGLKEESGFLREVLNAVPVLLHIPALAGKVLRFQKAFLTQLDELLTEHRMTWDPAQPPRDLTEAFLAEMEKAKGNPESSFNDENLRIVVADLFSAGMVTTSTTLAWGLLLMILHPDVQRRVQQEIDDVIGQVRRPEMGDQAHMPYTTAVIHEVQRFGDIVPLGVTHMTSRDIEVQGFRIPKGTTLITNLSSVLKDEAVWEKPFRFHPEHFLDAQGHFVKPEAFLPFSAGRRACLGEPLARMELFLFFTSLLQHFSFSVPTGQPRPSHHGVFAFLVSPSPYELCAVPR

CYP3A4 [9] = biological target: T3, CYP3A4; assay: Inhibition of human CYP3A4 at 3 uM; format: ADME
CYP2A6 [10] = biological target: T4, CYP2A6; assay: Inhibition of human CYP2A6 at 3 uM; format: ADME
CYP2C19 [11] = biological target: T1, CYP2C19; assay: Inhibition of human CYP2C19 at 10 uM; format: ADME
CYP2D6 [12] = biological target: T5, CYP2D6; assay: Inhibition of human CYP2D6 at 10 uM; format: ADME
[13] = biological target: 5-hydroxytryptamine receptor 6 (Homo sapiens, UniProt P50406); assay: biochemical
Sequence of 5-hydroxytryptamine receptor 6 (P50406 whole entry): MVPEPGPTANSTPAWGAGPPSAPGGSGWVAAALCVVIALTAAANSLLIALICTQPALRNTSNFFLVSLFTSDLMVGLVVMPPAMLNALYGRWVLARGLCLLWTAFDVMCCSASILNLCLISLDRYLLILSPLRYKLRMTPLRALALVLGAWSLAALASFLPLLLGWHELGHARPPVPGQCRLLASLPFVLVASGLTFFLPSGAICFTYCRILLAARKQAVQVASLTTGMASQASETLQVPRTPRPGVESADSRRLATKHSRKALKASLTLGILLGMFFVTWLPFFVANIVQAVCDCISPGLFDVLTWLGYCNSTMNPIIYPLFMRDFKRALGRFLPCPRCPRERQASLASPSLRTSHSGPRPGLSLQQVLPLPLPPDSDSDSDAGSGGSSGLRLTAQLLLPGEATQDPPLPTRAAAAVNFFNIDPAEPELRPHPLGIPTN
Description: Displacement of [3H]LSD from human 5HT6 receptor expressed in HEK293 cells

[14] = AUCt in fasted Wistar rat at 10 mg/kg, iv; format: ADME, organism-based; design: dose 10 mg/kg, route intravenous; details: plasma
[15] = Clearance in fasted Wistar rat at 10 mg/kg, po; format: ADME, organism-based; design: dose 10 mg/kg, route oral; details: in vivo
Rattus norvegicus [16] = assay: Apparent volume of distribution in fasted Wistar rat at 10 mg/kg, po; format: ADME, organism-based; design: dose 10 mg/kg, route oral; details: in vivo
[17] = Oral bioavailability in fasted Wistar rat; format: ADME, organism-based; details: in vivo
[18] = biological target: T6, Muscarinic acetylcholine receptor M1 (Homo sapiens, UniProt P11229); assay: Inhibition of human muscarinic M1 receptor expressed in CHO cells after 5 hrs by luciferase reporter assay; format: cell-based
T6 sequence (P11229 whole entry): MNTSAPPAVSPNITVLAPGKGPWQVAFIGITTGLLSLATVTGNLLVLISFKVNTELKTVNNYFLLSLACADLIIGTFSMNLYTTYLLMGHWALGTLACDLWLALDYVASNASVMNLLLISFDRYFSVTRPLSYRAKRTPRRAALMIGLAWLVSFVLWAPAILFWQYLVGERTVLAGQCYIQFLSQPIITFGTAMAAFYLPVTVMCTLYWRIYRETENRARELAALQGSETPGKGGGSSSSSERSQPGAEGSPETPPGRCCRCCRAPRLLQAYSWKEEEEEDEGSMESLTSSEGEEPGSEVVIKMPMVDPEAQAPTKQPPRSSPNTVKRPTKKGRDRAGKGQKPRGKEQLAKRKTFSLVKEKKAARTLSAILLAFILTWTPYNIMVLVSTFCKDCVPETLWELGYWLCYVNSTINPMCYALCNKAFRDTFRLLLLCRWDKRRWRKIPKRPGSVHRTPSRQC

[19] = Half life in fasted Wistar rat at 10 mg/kg, po; format: ADME, organism-based; design: dose 10 mg/kg, route oral; details: in vivo
[20] = biological target: 5-hydroxytryptamine receptor 7 (Homo sapiens, UniProt P34969); assay: Inhibition of human 5HT7 receptor expressed in CHO cells after 5 hrs by luciferase reporter assay; format: cell-based
Sequence of 5-hydroxytryptamine receptor 7 (P34969 whole entry): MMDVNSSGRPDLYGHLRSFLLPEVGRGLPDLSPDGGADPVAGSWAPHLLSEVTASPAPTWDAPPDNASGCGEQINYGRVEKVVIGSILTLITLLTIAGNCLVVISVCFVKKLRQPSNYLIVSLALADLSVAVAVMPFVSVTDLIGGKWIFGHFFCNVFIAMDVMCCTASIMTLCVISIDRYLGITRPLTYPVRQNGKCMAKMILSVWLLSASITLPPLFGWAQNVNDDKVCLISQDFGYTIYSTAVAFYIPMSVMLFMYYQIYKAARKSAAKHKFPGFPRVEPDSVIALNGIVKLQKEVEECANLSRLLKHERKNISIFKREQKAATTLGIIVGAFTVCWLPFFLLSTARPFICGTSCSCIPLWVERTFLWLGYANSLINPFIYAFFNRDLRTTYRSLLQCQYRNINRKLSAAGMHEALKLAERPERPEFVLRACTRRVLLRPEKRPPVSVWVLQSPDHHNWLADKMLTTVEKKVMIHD

Rattus norvegicus [21] = assay: Cognitive enhancing effect against scopolamine-induced memory deficit in Wistar rat at 30 mg/kg, po administered 60 mins before acquisition training measured after 5 days by Morris water maze test; format: functional, organism-based; design: dose 30 mg/kg
[22] = Apparent volume of distribution in fasted Wistar rat at 10 mg/kg, iv; format: ADME, organism-based; design: dose 10 mg/kg, route intravenous; details: in vivo, read-out: Vz
[23] = Cmax in fasted Wistar rat at 10 mg/kg, iv; format: ADME, organism-based; design: dose 10 mg/kg, route intravenous; details: in vivo
[24] = AUCt in fasted Wistar rat at 10 mg/kg, po; format: ADME, organism-based; design: dose 10 mg/kg, route oral; details: plasma
Rattus norvegicus [25] = assay: Cognitive enhancing effect against scopolamine-induced memory deficit in Wistar rat at 10 mg/kg, po by novel object recognition test; format: functional, organism-based; design: dose 10 mg/kg
[26] = Half life in fasted Wistar rat at 10 mg/kg, iv; format: ADME, organism-based; design: dose 10 mg/kg, route intravenous; details: in vivo
[27] = biological target: 5-hydroxytryptamine receptor 4 (Homo sapiens, UniProt Q13639); assay: Inhibition of human 5HT4 receptor expressed in CHO cells after 5 hrs by luciferase reporter assay; format: cell-based
Sequence of 5-hydroxytryptamine receptor 4 (Q13639 whole entry): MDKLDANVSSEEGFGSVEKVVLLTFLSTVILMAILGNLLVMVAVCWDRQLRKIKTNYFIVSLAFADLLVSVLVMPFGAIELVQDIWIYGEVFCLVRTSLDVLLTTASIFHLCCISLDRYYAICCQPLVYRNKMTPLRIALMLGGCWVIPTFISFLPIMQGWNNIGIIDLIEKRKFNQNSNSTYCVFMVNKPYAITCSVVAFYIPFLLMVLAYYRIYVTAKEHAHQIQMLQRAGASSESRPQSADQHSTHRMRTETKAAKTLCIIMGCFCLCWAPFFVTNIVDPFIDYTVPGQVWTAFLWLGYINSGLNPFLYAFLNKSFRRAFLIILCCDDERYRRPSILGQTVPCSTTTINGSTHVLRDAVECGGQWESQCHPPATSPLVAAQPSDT

[28] = Clearance in fasted Wistar rat at 10 mg/kg, iv; format: ADME, organism-based; design: dose 10 mg/kg, route intravenous; details: in vivo
[29] = Ratio of drug level at steady state in brain to plasma in fasted Wistar rat; format: ADME; details: read-out: BPR
[30] = Cmax in fasted Wistar rat at 10 mg/kg, po; format: ADME, organism-based; design: dose 10 mg/kg, route oral; details: in vivo

T1 sequence (P33261 whole entry): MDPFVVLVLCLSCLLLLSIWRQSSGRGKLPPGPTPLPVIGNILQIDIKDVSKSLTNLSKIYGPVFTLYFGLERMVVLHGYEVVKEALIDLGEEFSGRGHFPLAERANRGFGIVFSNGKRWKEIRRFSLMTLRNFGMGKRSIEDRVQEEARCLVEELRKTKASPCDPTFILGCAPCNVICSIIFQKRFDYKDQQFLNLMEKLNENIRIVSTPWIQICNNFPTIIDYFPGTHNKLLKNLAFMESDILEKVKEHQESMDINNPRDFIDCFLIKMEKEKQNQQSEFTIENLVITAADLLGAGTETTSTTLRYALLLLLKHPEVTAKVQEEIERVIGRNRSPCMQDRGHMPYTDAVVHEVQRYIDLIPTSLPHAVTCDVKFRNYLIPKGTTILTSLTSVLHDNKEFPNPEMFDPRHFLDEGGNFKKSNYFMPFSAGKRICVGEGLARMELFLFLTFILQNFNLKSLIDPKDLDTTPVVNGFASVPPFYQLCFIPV

Structure (SMILES)	inhibition at 3 µM (CYP2C19 [1]) [%]	inhibition at 10 µM (CYP1A2 [2]) [%]	inhibition at 10 µM (CYP3A4 [3]) [%]	inhibition at 3 µM (CYP2C9*1 [4]) [%]	inhibition at 10 µM (CYP2C9*1 [5]) [%]	inhibition at 10 µM (CYP2A6 [6]) [%]	inhibition at 3 µM (CYP1A2 [7]) [%]	inhibition at 3 µM (CYP2D6 [8]) [%]	inhibition at 3 µM (CYP3A4 [9]) [%]	inhibition at 3 µM (CYP2A6 [10]) [%]	inhibition at 10 µM (CYP2C19 [11]) [%]	inhibition at 10 µM (CYP2D6 [12]) [%]	Ki [13] [µM]	further results
CN1CCN(Cc2ccc3c(ccn3S(=O)(=O)c3ccccc3)c2)CC1	9.91	17.3	5.47	-8.69	18.2	4.81	14.4	12	8.24	-2.24	31.2	31.2		
CCN1CCN(Cc2ccc3c(ccn3S(=O)(=O)c3cccc(C(F)(F)F)c3)c2)CC1													0.00572	
CN1CCN(Cc2ccc3c(ccn3S(=O)(=O)c3cccc(C(F)(F)F)c3)c2)CC1													0.00315	
CCN1CCN(Cc2ccc3c(ccn3Cc3ccccc3)c2)CC1													> 1	
O=S(=O)(c1ccc(F)cc1F)n1cc(Cl)c2cc(CN3CCNCC3)ccc21	31.9	14.6	45	-12.6	27.8	6.37	14.5	1.46	26.4	-3.62	72.9	17.7	0.00557	
CCN1CCN(Cc2ccc3c(ccn3S(=O)(=O)c3ccc(C(C)C)cc3)c2)CC1	23.9	18.2	68.1	7.12	46.3	21.9	14.5	10.4	30.5	-1.26	51.1	35.7		
CCN1CCN(Cc2ccc3c(ccn3S(=O)(=O)c3ccccc3Br)c2)CC1	22.8	17.9	32.9	7.47	15.9	10.8	3.64	48.3	-3.67	-0.39	43.6	76.2		AUC(0-t) [14]: 1.38 µg·h/mL; CL/F [15]: 128 L/h/kg; Vz (Rattus norvegicus [16]): 1035.145 L/kg; bioavailability [17]: 4.2%; IC50 [18]: 1.42 µM; half-life [19]: 6.04 h; IC50 [20]: > 10 µM; Activity (Rattus norvegicus [21]): Active; Vd [22]: 21.8 L/kg; Cmax [23]: 0.716 µg/mL; AUC(0-t) [24]: 0.059 µg·h/mL; Activity (Rattus norvegicus [25]): Active; half-life [26]: 2.1 h; IC50 [27]: > 10 µM; clearance [28]: 7.19 L/h/kg; Kp [29]: 19.3; Cmax [30]: 0.013 µg/mL
CCN1CCN(Cc2ccc3c(ccn3S(=O)(=O)c3ccc(F)cc3)c2)CC1	6.75	8.34	34.2	-14.3	19.6	10.2	13.7	10.3	18.6	-7.74	4.7	46		

Further lines, with some results ahead:

inhibition at 3 µM (CYP2C19 [1]) [%]	inhibition at 10 µM (CYP1A2 [2]) [%]	inhibition at 10 µM (CYP3A4 [3]) [%]	inhibition at 3 µM (CYP2C9*1 [4]) [%]	inhibition at 10 µM (CYP2C9*1 [5]) [%]	inhibition at 10 µM (CYP2A6 [6]) [%]	inhibition at 3 µM (CYP1A2 [7]) [%]	inhibition at 3 µM (CYP2D6 [8]) [%]	inhibition at 3 µM (CYP3A4 [9]) [%]	inhibition at 3 µM (CYP2A6 [10]) [%]	inhibition at 10 µM (CYP2C19 [11]) [%]	inhibition at 10 µM (CYP2D6 [12]) [%]	Ki [13] [µM]	Structure (SMILES)	further results
												0.011	CCN1CCN(Cc2ccc3c(ccn3S(=O)(=O)c3ccc(C)cc3)c2)CC1	
												0.0282	CCN1CCN(Cc2ccc3c(ccn3S(=O)(=O)c3ccc(Cl)cc3)c2)CC1	
10.1	26.9	39	6.42	9.13	19.8	3.4	6.42	2.6	14.1	21.5	15.2		CN1CCN(Cc2ccc3c(c2)c(Cl)cn3S(=O)(=O)c2ccc(F)cc2)CC1	IC50 [18]: > 10 µM; IC50 [20]: > 10 µM; IC50 [27]: > 10 µM
												0.00933	CN1CCN(Cc2ccc3c(c2)c(Cl)cn3S(=O)(=O)c2ccc(Cl)cc2)CC1	
												> 1	CN1CCN(Cc2ccc3c(ccn3C(=O)c3ccccc3)c2)CC1	
